Laboratory results as given in patent publication US8748369B2, “Use of targeted nitroxide agents in bone healing” (University of Pittsburgh-Of the Commonwealth System of …, priority 2009, dated 2014).
Where a SMILES comes first, the peptide text is derived from it. [ ]: non-standard residue; d: D form. The star is where a group is joined. NH(TEMPO-4-yl) = CC1(C)CC(N*)CC(C)(C)N1[O]; Orn = NCCC[C@H](N)C(=O)O; Cbz = O=C(OCc1ccccc1)*; Boc = CC(C)(C)OC(=O)*

Experiments:
Solubility in water = assay type: physicochemical
Description: All compositions are sterile filtered (e.g.) using a 0.2 micron filter (non sterile). • A. 0.1% DMSO 99.9% and RMPI 1640. Comments: with the low water solubility of JP4-039, DMSO is used in vitro experiments since it is a universal solvent which has been used in radiation biology experiments without any toxic effects. • B. 10% CrEL(Cremophor EL), 10% ethanol and 80% DI water. […] This formula dissolves the JP4-039. • C. Suspension of JP4-039 in F14 emulsion: Comments: F14 is a mixture of sesame oil, egg-phosphatidyl choline, Tween 80, and Span85 at ratios of 1:0.5:0.25:0.25 w/w, respectively. […] Comments: Sesame Seed Oil (100 mg/ml), Soy Phosphatidyl […] (50 mg/ml), JP4-039 (2 mg/ml), and Phosphate Buffered Saline. • Low dose (JP4-039): 5 mg/kg, 0.5 mg/ml. • Medium dose (JP4-039): 10 mg.kg, 1.0 mg/ml. • High dose (JP4-039): 20 mg/kg, 2.0 mg/ml. • Placebo/Vehicle (JP4-039): 0 mg/kg, 0 ing/ml • Exemplary dose (mouse): 200 μl of volume • E. JP4-039 dissolved in a solution of 45% 2-hydroxypropyl-β-cyclodextrin and 55% water. Comments: Cyclodextrins have a hydrophobic interior which compounds such as JP4-039 can complex in a rapid and reversible reaction. P-cyclodextrins have a cavity with an inner diameter of approximately 7.5 Å which is well suited for JP4-039.

[1] = tested on: mouse embryonic cells, mitochondria; test: EPR-based analysis of integration and distribution of nitroxides (Example 9); assay type: cell-based; details: 10 μM nitroxides for 10 min
Procedure: To compare the integration efficiency, mouse embryonic cells (1×10^7/mL) were incubated with 10 μM nitroxides for 10 min. ESR spectra of nitroxide radicals in the incubation medium, cell suspension or mitochondrial suspension were recorded after mixing with acetonitrile (1:1 v/v) after 5-min incubation with 2 mM K3Fe(CN)6 using JEOL-RE1X EPR spectrometer under the following conditions: 3350 G center field; 25 G scan range; 0.79 G field modulation, 20 mW microwave power; 0.1 s time constant; 4 min scan time. Integration efficiency was calculated as (Einitial−Emedium)/Einitial×100%. Mitochondria were isolated using a mitochondria isolation kit (Pierce, Rockford, Ill.) according to the manufacturer's instruction. Amounts of nitroxide radicals integrated into mitochondria were normalized to the content of cytochrome c oxidase subunit IV.

mouse embryonic cells [2] = test: Gamma irradiation induced superoxide generation and cardiolipin oxidation; assay type: cell-based; details: 10 Gy, 20 μM
Procedure: Oxidation-dependent fluorogenic dye, DHE was used to evaluate intracellular production of superoxide radicals. DHE is cell permeable and, in the presence of superoxide, is oxidized to fluorescent ethidium which intercalates into DNA. Briefly, cells were treated with 5 μM DHE for 30 min at the end of incubation. Cells were then collected by trypsinization and resuspended in PBS. The fluorescence of ethidium was measured using a FACScan flow cytometer (Becton-Dickinson, Rutherford, N.J.) supplied with the CellQuest software. Mean fluorescence intensity from 10,000 cells was acquired using a 585/42 nm bandpass filter.
CL hydroperoxides were determined by fluorescence HPLC of products formed in MP-11-catalyzed reaction with a fluorogenic substrate, Amplex Red. […] Shimadzu LC-100AT vp HPLC system equipped with fluorescence detector (RF-10Axl, Ex/Em=560/590 nm) and autosampler (SIL-10AD vp) were used for the analysis of products separated by HPLC (Eclipse XDB-C18 column, 5 μm, 150×4.6 mm) Mobile phase was composed of NaH2PO4 (25 mM, pH 7.0)/methanol (60:40 v/v).
(A) superoxide generation. […] Ethidium fluorescence was analyzed using a FACScan flow cytometer supplied with CellQuest software. Mean fluorescence intensity from 10,000 cells was acquired using a 585-nm bandpass filter. […] Cardiolipin hydroperoxides were determined using a fluorescent HPLC-based Amplex Red assay. […]

mouse embryonic cells [3] = test: Gamma irradiation induced apoptosis (cytochrome c release, PS externalization); assay type: cell-based
Procedure: Externalization of PS was analyzed by flow cytometry using annexin-V kit. Briefly, harvested cells were stained with annexin-V-FITC and PI for 5 min in dark prior to flow cytometry analysis. Ten thousand events were collected on a FACScan flow cytometer (Becton-Dickinson) supplied with CellQuest software.
(A) XJB-5-125 blocks γ-irradiation induced accumulation of cytochrome c in the cytosol of mouse embryonic cells. (B) Densitometry ratio of cytochrome c/actin. Semi-quantitation of the bands was carried out by densitometry using Labworks Image Acquisition and Analysis Software (UVP, Upland, Calif.). The level of cytochrome c release was expressed as the mean densitometry ratio of cytochrome c over actin. (C) Dose (5, 10 and 20 μM) dependent radioprotective effect of XJB-5-125 (pre-treatment) on γ-irradiation (10 Gy) induced phosphatidylserine (PS) externalization. After 48 h post-irradiation incubation, cells were harvested and stained with annexin-V-FITC and propodium iodide (PI) prior to flow cytometry analysis. (D) Time (2, 3, 4, 5, and 6 h) dependent radioprotective effect of XJB-5-125 (20 μM) on γ-irradiation (10 Gy) induced PS externalization (48 h post irradiation) in mouse embryonic cells. […] Externalization of PS was analyzed 72 h post-irradiation exposure. […]

Row | SMILES | solubility in water (Solubility in water) | integration into cells and mitochondria compared with non-conjugated 4-amino-TEMPO [1] | gamma irradiation induced cardiolipin peroxidation (mouse embryonic cells [2]) | gamma irradiation induced superoxide generation (mouse embryonic cells [2]; 10-min before or 1-h after irradiation) | gamma irradiation induced apoptosis (mouse embryonic cells [3]; 10 Gy) | γ-irradiation induced accumulation of cytochrome c in the cytosol (mouse embryonic cells [3]; mouse embryonic cells)
1 | CC(C)C[C@@H](/C=C/CC(=O)NC1CC(C)(C)N([O])C(C)(C)C1)NC(=O)OC(C)(C)C [JP4-039, (S,E)-5-(tert-Butoxycarbonylamino)-7-methyloct-3-enoic acid-TEMPO] | low solubility in water |  |  |  |  | 
2 | CC(C)C[C@H](NC(=O)OC(C)(C)C)C(=O)N[C@H](Cc1ccccc1)C(=O)N1CCC[C@H]1C(=O)N[C@H](C(=O)N[C@@H](CCCNC(=O)OCc1ccccc1)C(=O)NC1CC(C)(C)N([O])C(C)(C)C1)C(C)C [XJB-5-125] (Boc-L[dF]PV[Orn](Cbz)-{NH(TEMPO-4-yl)}) |  | much more efficiently | protects | protects | protects | blocks
